Reference: US8673914B2, “Use of phosphodiesterase inhibitors for treating multidrug resistance” (St. John's University, priority 2011, dated 2014)
Where two headings read alike, the source gives them in different places. Marks after values point to notes of the source that are not given here.

How the values were obtained:
S1/FLV5000 = experiment: cells; type: cell-based
Procedure: (§1) The ABCB1-overexpressing drug resistant cell line KB-V1 (generously provided by Dr. Gottesman, NCI, NIH) was established by a stepwise concentration increase of vinblastine in the culture medium of KB-3-1 cells and subsequently culturing these cells in medium with 1 μg/mL of vinblastine. An ABCC1-overexpressing MDR cell line, KB-CV60, was also derived from KB-3-1 cells and was maintained in medium with 1 μg/mL of cepharanthine and 60 ng/mL of vincristine. Both KB-C2 and KB-CV60 cell lines were kindly provided by Dr. Akiyama (Kagoshima University, Japan). HEK293/pcDNA3.1, ABCG2-482-R5, ABCG2-482-G2, and ABCG2-482-T7 cells were established by selection with 2 mg/mL G418 after transfecting HEK293 with either (1) empty pcDNA3.1 vector or (2) pcDNA3.1 vector containing full length ABCG2 coding either (2a) wild-type arginine (R) or mutant (2b) glycine (G) or (2c) threonine (T) at amino acid position 482, respectively. The wild-type ABCG2-overexpressing drug-resistant cell line MCF-7/Flv1000 was cultured in the medium with 1 μM of flavopiridol. […] Another G482 mutant ABCG2-overexpressing drug resistant cell line, S1-M1-80, was maintained in the medium with 80 μM of mitoxantrone. […] All the cell lines were grown as adherent monolayers in flasks with DMEM (Dulbecco's modified Eagle's medium) culture medium (Hyclone Co.) containing 10% bovine serum at 37° C. in a humidified atmosphere of 5% CO2.
(§2) Cells in 96-well plates were preincubated with or without the reversal agents for 1 h and then different concentrations of chemotherapeutic drugs were added into designated wells. After 68 h of incubation, MTT solution (4 mg/mL) was added to each well, and the plate was further incubated for 4 h, allowing viable cells to change the yellow-colored MTT into dark-blue formazan crystals. Subsequently the medium was discarded, and […] of DMSO was added into each well to dissolve the formazan crystals. The absorbance was determined at 570 nm by an OPSYS MR Microplate Reader from DYNEX Technologies, Inc.

HEK/ABCG2-R5 = experiment: MTT cytotoxicity/reversal assay (Example 2); conditions: HEK/ABCG2-R5, alone
Procedure: as §1, §2

HEK/ABCG2-T7 = experiment: MTT cytotoxicity/reversal assay (Example 2); conditions: HEK/ABCG2-T7, alone
Procedure: as §1, §2

HEK/ABCG2-G2 = experiment: MTT cytotoxicity/reversal assay (Example 2); conditions: HEK/ABCG2-G2, alone
Procedure: as §1, §2

MCF-7/Flv1000 = experiment: MTT cytotoxicity/reversal assay (Example 2); type: cell-based; conditions: MCF-7/Flv1000, alone
Procedure: as §1, §2

HEK293/pcDNA3 = experiment: MTT cytotoxicity/reversal assay (Example 2); type: cell-based; conditions: alone
Procedure: as §1, §2

MCF7/ADVP3000 = experiment: MTT cytotoxicity/reversal assay (Example 2); type: cell-based; conditions: alone
Procedure: as §1, §2

MCF-7 = experiment: MTT cytotoxicity/reversal assay (Example 2); type: cell-based
Procedure: as §1, §2

S1-M1-80 = experiment: MTT cytotoxicity/reversal assay (Example 2); type: cell-based; conditions: alone
Procedure: as §1, §2

S1 = experiment: MTT cytotoxicity/reversal assay (Example 2); type: cell-based; conditions: alone
Procedure: as §1, §2

HEK/MRP1 (ABCC1) = experiment: MTT cytotoxicity/reversal assay (Example 1); type: cell-based; conditions: +10 μM reversal agent
Procedure: The KB-C2 and KB-3-1 were kindly provided by Dr. Akiyama (Kagoshima University, Japan). […] Similarly, the HEK/MRP1 (ABCC1) and HEK/ABCB1 cells were generated by transfecting the HEK293 cells with either the MRP1 expression vector or the ABCB1 expression vector. All of the cell lines were grown in Dulbecco's modified Eagle's medium (DMEM) supplemented with 10% bovine serum, 100 units/ml penicillin, and […] streptomycin in a humidified incubator containing 5% CO2 at 37° C.
(§3) The MTT assay was used to assess cytotoxicity. The cultured cells were harvested with trypsin and resuspended in a final concentration of 4×10^3 cells/well for KB-3-1; 7.5×10^3 cells/well for KB-C2; and 8×10^3 for all of the other cell lines used in this study. Cells were seeded evenly in 96-well multiplates. […] After 68 h of incubation, 20 μl of the MTT solution (4 mg/ml) was added to each well, and the plate was further incubated for 4 h at 37° C., allowing viable cells to convert the yellow-colored MTT into dark-blue formazan crystals. Subsequently, the medium was discarded, and 100 μl of DMSO was added into each well to dissolve the formazan crystals, generating purple color. The absorbance was determined at 570 nm by an OPSYS Microplate Reader from DYNEX Technologies, Inc. (Chantilly, Va.). […] The degree of the reversal of multidrug resistance (MDR) was calculated by dividing the IC50 of an anticancer drug, e.g., an antineoplastic or chemotherapeutic drug (agent, compound), in a cell type in the absence of a reversal agent by the IC50 of the anticancer drug in the same cell type in the presence of the reversal agent. The IC50 values were calculated from survival curves using the Bliss method.

HEK293/pcDNA3.1 = experiment: MTT cytotoxicity/reversal assay (Example 1); type: cell-based
Procedure: (§4) The KB-C2 and KB-3-1 were kindly provided by Dr. Akiyama (Kagoshima University, Japan). HEK293-pcDNA3.1 and wild-type HEK/ABCG2 transfected cells were established by selection with G418 after transfecting HEK293 with either (1) empty pcDNA3.1 vector or (2) pcDNA3.1 vector containing full length of ABCG2 coding arginine (R) at amino acid position 482, and were then cultured in a medium with 2 mg/ml of G418 (ABCG2-482-R2 cells). Similarly, the HEK/MRP1 (ABCC1) and HEK/ABCB1 cells were generated by transfecting the HEK293 cells with either the MRP1 expression vector or the ABCB1 expression vector. All of the cell lines were grown in Dulbecco's modified Eagle's medium (DMEM) supplemented with 10% bovine serum, 100 units/ml penicillin, and […] streptomycin in a humidified incubator containing 5% CO2 at 37° C.
as §3

ABCG2-482-R2 (ABCG2) = experiment: MTT cytotoxicity/reversal assay (Example 1)
Procedure: as §4, §3

HEK/MRP7 = experiment: MTT cytotoxicity assay (Example 4); type: cell-based; conditions: alone;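 as to fold-resistance, vinblastine: drug IC50 in HEK/MRP7 divided by IC50 in parental HEK293-pcDNA3.1 cells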
Procedure: (§5) The MRP7 cDNA was generously provided by Dr. Gary Kruh (University of Illinois, Chicago, Ill.) and inserted into the pcDNA3.1 expression vector. […] Individual colonies were selected in medium containing G418 (1 mg/ml) and cultured for further analysis.
(§6) MTT colorimetric assay was performed to analyze the drug sensitivity as previously described (Shi et al. (2007) Cancer Res. 67:11012-20). HEK293-pcDNA3.1 and HEK/MRP7 cells were seeded into 96-well plates in triplicate at 6000 cells/well.
(§7) After drug incubation of 68 h, 20 μl MTT solution (4 mg/ml) was added into each well. […] The Bliss method was used to calculate the IC50 values according to survival curves.

HEK 293-pcDNA-3.1 = experiment: MTT cytotoxicity assay (Example 4); type: cell-based
Procedure: as §5, §6, §7

[1] = MTT cytotoxicity assay (Example 4); type: cell-based; conditions: human; HEK/MRP7; alone; read-out: IC50 of vinblastine;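 as to fold-resistance, vinblastine: drug IC50 in HEK/MRP7 divided by IC50 in parental HEK293-pcDNA3.1 cells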
Procedure: as §5, §6, §7

KB-3-1 = experiment: MTT cytotoxicity/reversal assay (Example 2); type: cell-based, human; conditions: alone
Procedure: as §1, §2

KB-C2 = experiment: MTT cytotoxicity/reversal assay (Example 2); type: cell-based, human; conditions: alone
Procedure: as §1, §2

KB-V1 = experiment: MTT cytotoxicity/reversal assay (Example 2); type: cell-based, human; conditions: alone
Procedure: as §1, §2

[2] = Homo sapiens, read-out: IC50 of mitoxantrone

Q: What does the source list for O=C1c2c(O)ccc(O)c2C(=O)c2c(NCCNCCO)ccc(NCCNCCO)c21 [Mitoxantrone, mitoxantrone]?
A: fold-resistance, mitoxantrone (S1/FLV5000): (3.0); IC50 (S1/FLV5000; S1/FLV5000, alone, read-out: IC50 of mitoxantrone): 1.12 ± 0.144 µM; fold-resistance, mitoxantrone (HEK/ABCG2-R5): (12.8); fold-resistance, mitoxantrone (HEK/ABCG2-T7): (23.7); fold-resistance, mitoxantrone (HEK/ABCG2-G2): (31.0); fold-resistance, mitoxantrone (MCF-7/Flv1000): (66.7); IC50 (MCF-7/Flv1000; read-out: IC50 of mitoxantrone): 511 ± 16.7 µM; IC50 (HEK293/pcDNA3; [2]): 0.0356 ± 0.003 µM; fold-resistance, mitoxantrone (HEK293/pcDNA3): (1.0)^c; IC50 (MCF7/ADVP3000; [2]): 279 ± 6.03 µM; fold-resistance, mitoxantrone (MCF7/ADVP3000): (36.4); IC50 (MCF-7; Homo sapiens, MCF7, alone, read-out: IC50 of mitoxantrone): 7.66 ± 0.193 µM; fold-resistance, mitoxantrone (MCF-7; alone): (1.0)^c; IC50 (S1-M1-80; [2]): 224 ± 8.6 µM; fold-resistance, mitoxantrone (S1-M1-80): (559.3); fold-resistance, mitoxantrone (S1): (1.0)^c; IC50 (S1; read-out: IC50 of mitoxantrone): 0.38 ± 0.0416 µM

Q: With O=C(Nc1cccc2c(=O)cc(-c3nn[nH]n3)oc12)c1ccc(OCCCCc2ccccc2)cc1 [ONO-1078] as the molecule, how does the “fold reversal, vincristine” value (HEK/MRP1 (ABCC1)) read?
A: (5.9)

Q: What about the “fold reversal, vincristine” value (HEK293/pcDNA3.1; HEK293/pcDNA3.1 (Table 6), +10 μM reversal agent) of the same molecule?
A: (1.33)

Q: For CCc1c2c(nc3ccc(O)cc13)-c1cc3c(c(=O)n1C2)COC(=O)[C@]3(O)CC [SN-38, 7-ethyl-10-hydroxy-20(S)-camptothecin], which “fold-resistance, SN-38” value (S1/FLV5000; S1/FLV5000, alone) is on record?
A: (1.4)

Q: And the IC50 (S1/FLV5000; S1/FLV5000, alone, read-out: IC50 of SN-38)?
A: 0.344 ± 0.0874 µM

Q: And the “fold-resistance, SN-38” value (HEK/ABCG2-R5)?
A: (22.1)

Q: What about the IC50 (HEK/ABCG2-R5; read-out: IC50 of SN-38) of the same molecule?
A: 0.128 ± 0.0882 µM

Q: What about the “fold-resistance, SN-38” value (HEK/ABCG2-T7) of the same molecule?
A: (20.2)

Q: And the IC50 (HEK/ABCG2-T7; read-out: IC50 of SN-38)?
A: 0.117 ± 0.0704 µM

Q: What about the “fold-resistance, SN-38” value (HEK/ABCG2-G2) of the same molecule?
A: (2.3)

Q: What about the IC50 (HEK/ABCG2-G2; read-out: IC50 of SN-38) of the same molecule?
A: 0.204 ± 0.136 µM

Q: What about the “fold reversal, SN-38” value (ABCG2-482-R2 (ABCG2); alone) of the same molecule?
A: (1.00)

Q: And the IC50 (ABCG2-482-R2 (ABCG2); read-out: IC50 of SN-38, alone)?
A: 3.65 ± 0.547 µM

Q: And the “fold reversal, SN-38” value (HEK293/pcDNA3.1; HEK293/pcDNA3.1, alone)?
A: (1.00)

Q: And the IC50 (HEK293/pcDNA3.1; HEK293/pcDNA3.1, alone, read-out: IC50 of SN-38)?
A: 0.116 ± 0.0151 µM

Q: What about the “fold-resistance, SN-38” value (MCF-7/Flv1000) of the same molecule?
A: (18.7)

Q: What about the IC50 (MCF-7/Flv1000; read-out: IC50 of SN-38) of the same molecule?
A: 22.8 ± 2 µM

Q: And the “fold-resistance, SN-38” value (HEK293/pcDNA3)?
A: (1.0)^c

Q: What about the IC50 (HEK293/pcDNA3; read-out: IC50 of SN-38) of the same molecule?
A: 0.0058 ± 0.0002 µM

Q: And the “fold-resistance, SN-38” value (MCF7/ADVP3000)?
A: (11.3)

Q: And the IC50 (MCF7/ADVP3000; read-out: IC50 of SN-38)?
A: 14.3 ± 1.62 µM

Q: What about the “fold-resistance, SN-38” value (MCF-7; alone) of the same molecule?
A: (1.0)^c

Q: What about the IC50 (MCF-7; alone, read-out: IC50 of SN-38) of the same molecule?
A: 1.22 ± 0.263 µM

Q: And the “fold-resistance, SN-38” value (S1-M1-80)?
A: (14.4)

Q: What about the IC50 (S1-M1-80; read-out: IC50 of SN-38) of the same molecule?
A: 3.55 ± 1.4 µM

Q: And the “fold-resistance, SN-38” value (S1)?
A: (1.0)^c

Q: And the IC50 (S1; read-out: IC50 of SN-38)?
A: 0.245 ± 0.017 µM

Q: Which “fold-resistance, vinblastine” value (HEK/MRP7) does the source give for CC[C@]1(O)C[C@@H]2CN(CCc3c([nH]c4ccccc34)[C@@](C(=O)OC)(c3cc4c(cc3OC)N(C)[C@H]3[C@@](O)(C(=O)OC)[C@H](OC(C)=O)[C@]5(CC)C=CCN6CC[C@]43[C@@H]65)C2)C1 [Vinblastine, vinblastine] here?
A: (5.03)

Q: What about the “fold-resistance, vinblastine” value (HEK 293-pcDNA-3.1; HEK 293-pcDNA-3.1, alone) of the same molecule?
A: (1.0)

Q: And the IC50 (HEK 293-pcDNA-3.1; read-out: IC50 of vinblastine)?
A: 0.0112 ± 0.00123 µM

Q: What about the IC50 at 68 h [1] of the same molecule?
A: 0.0563 ± 0.00461 µM

Q: What about the “fold-resistance, vinblastine” value (KB-3-1) of the same molecule?
A: (1.0)^c

Q: And the “fold-resistance, vinblastine” value (KB-C2)?
A: (10.3)

Q: What about the “fold-resistance, vinblastine” value (KB-V1) of the same molecule?
A: (120.1)
